Experimental data from paper PMC3685428 (ACS medicinal chemistry letters, 2012).

Columns and labels:
[1] = system: P. falciparum 3D7 strain; assay: Proliferation of erythrocyte-stage P. falciparum, 3D7 strain; type: cell-based; conditions: Plasmodium falciparum; for IC50: 3D7, Erythrocyte, read-out: IC50 against P. falciparum proliferation, 3D7 strain
[2] = system: P. falciparum Dd2 strain; assay: Proliferation of erythrocyte-stage P. falciparum, Dd2 strain; type: cell-based; conditions: Plasmodium falciparum; for IC50: DD2, Erythrocyte, read-out: IC50 against P. falciparum proliferation, Dd2 strain
[3] = target: T1, recombinant P. falciparum DXR (PfDXR) (Plasmodium falciparum, UniProt O96693); assay: Enzyme inhibition of recombinant P. falciparum DXR; type: biochemical; conditions: relative to compound 7
T1 sequence (O96693 73-488): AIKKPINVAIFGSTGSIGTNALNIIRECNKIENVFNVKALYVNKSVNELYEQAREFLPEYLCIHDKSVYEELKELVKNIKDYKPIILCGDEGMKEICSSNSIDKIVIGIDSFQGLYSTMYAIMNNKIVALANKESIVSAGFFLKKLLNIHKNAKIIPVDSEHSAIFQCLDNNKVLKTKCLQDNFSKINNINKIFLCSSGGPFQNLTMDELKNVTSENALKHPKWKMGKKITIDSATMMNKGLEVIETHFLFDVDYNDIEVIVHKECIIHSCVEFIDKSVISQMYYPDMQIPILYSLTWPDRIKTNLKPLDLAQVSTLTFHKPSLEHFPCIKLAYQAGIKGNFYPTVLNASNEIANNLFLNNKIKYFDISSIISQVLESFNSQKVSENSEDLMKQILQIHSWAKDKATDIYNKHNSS

[4] = system: P. falciparum malaria; conditions: clinical trials, in combination with clindamycin ref 7, 8; cited from earlier work
[5] = background statement, cited from earlier work

| SMILES | IC50 [1] | IC50 [2] | EC50 ([2]; DD2, read-out: EC50 against P. falciparum Dd2) | EC50 ([1]; 3D7, read-out: EC50 against P. falciparum 3D7) | Fold more inhibitory potency than compound 7 against PfDXR [3] | Clinical efficacy against P. falciparum malaria [4] | Oral availability [5] | Half life in plasma ([5]; plasma) |
| --- | --- | --- | --- | --- | --- | --- | --- | --- |
| CCN(CC)CCCC(C)Nc1ccnc2cc(Cl)ccc12 (centres unmarked) [CQ, chloroquine, reference compound] | 21 nM | 120 nM |  |  |  |  |  |  |
| CC(=O)N(O)CCC(c1cccnc1)P(=O)(O)O (centres unmarked) [5m] | 440 nM | 310 nM | 630 nM |  |  |  |  |  |
| O=CN(O)CCC(c1ccncc1)P(=O)(O)O (centres unmarked) [4p] | 180 nM | 170 nM |  |  |  |  |  |  |
| O=CN(O)CCC(c1cccnc1)P(=O)(O)O (centres unmarked) [4m] | 340 nM | 180 nM |  |  |  |  |  |  |
| CC(=O)N(O)CCC(c1ccncc1)P(=O)(O)O (centres unmarked) [5p] | 630 nM | 460 nM |  | 310 nM | ~ 6 × |  |  |  |
| O=CN(O)CCCP(=O)(O)O [compound 1, Fosmidomycin] | 1170 nM | 440 nM |  |  |  | effective against P. falciparum malaria | poor | ~ 1 h |
| CC(=O)N(O)CCC(c1ccccc1)P(=O)(O)O (centres unmarked) [compound 7] | 3500 nM | 1700 nM |  |  |  |  |  |  |
